Data: patent US20100292231A1, “Indazole Compounds for Treating Inflammatory Disorders, Demyelinating Disorders and Cancers” (priority 2007, published 2010)
Like-named read-outs stand apart in the source and are kept apart here.

Tests used:
Test in all cases: SelectScreen kinase specificity survey
Assay type in all cases: biochemical
PRKCI (PKC iota) = target: T1, PRKCI (PKC iota) (Homo sapiens, UniProt P41743); details: estimated, abridged dose response curve, read-out: Kinase inhibitory activity EC50
T1 construct: purchased Invitrogen, Inc. (SelectScreen platform)
Method in brief: (§1)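 ATP held at 100 micromolar; every kinase had its own substrate and optical reporter. The compound was dosed in 5 increments, and a 4-parameter Hill curve gave the EC50 estimate.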

CAMK1D (CaMKI delta) = target: T2, CAMK1D (CaMKI delta) (Homo sapiens, UniProt Q8IU85); details: estimated, abridged dose response curve, read-out: Kinase inhibitory activity EC50
T2 construct: purchased Invitrogen, Inc. (SelectScreen platform)
Method in brief: as §1

ABL1 E255K = target: T3, ABL1 E255K (Homo sapiens, UniProt P00519, E255K); details: estimated, abridged dose response curve, read-out: Kinase inhibitory activity EC50
T3 construct: purchased Invitrogen (SelectScreen platform)
Method in brief: as §1

MAPK11 (p38 beta) = target: T4, MAPK11 (p38 beta) (Homo sapiens, UniProt Q15759); details: estimated, abridged dose response curve, read-out: Kinase inhibitory activity EC50
T4 construct: purchased Invitrogen (SelectScreen platform)
T4 sequence (Q15759 whole entry): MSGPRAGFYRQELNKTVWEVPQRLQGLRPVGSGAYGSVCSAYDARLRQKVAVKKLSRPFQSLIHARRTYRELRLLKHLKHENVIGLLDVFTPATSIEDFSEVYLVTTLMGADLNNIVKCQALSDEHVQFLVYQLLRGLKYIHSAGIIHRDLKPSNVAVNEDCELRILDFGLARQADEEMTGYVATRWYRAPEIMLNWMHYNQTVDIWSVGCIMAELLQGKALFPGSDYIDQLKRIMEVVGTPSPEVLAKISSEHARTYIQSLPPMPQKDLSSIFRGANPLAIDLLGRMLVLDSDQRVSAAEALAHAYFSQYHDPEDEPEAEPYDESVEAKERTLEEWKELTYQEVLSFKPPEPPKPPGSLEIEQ
Method in brief: as §1

ERBB2 (HER2) = target: T5, ERBB2 (HER2) (Homo sapiens, UniProt P04626); details: estimated, abridged dose response curve, read-out: Kinase inhibitory activity EC50
T5 construct: purchased Invitrogen (SelectScreen service)
T5 sequence (P04626 23-1255): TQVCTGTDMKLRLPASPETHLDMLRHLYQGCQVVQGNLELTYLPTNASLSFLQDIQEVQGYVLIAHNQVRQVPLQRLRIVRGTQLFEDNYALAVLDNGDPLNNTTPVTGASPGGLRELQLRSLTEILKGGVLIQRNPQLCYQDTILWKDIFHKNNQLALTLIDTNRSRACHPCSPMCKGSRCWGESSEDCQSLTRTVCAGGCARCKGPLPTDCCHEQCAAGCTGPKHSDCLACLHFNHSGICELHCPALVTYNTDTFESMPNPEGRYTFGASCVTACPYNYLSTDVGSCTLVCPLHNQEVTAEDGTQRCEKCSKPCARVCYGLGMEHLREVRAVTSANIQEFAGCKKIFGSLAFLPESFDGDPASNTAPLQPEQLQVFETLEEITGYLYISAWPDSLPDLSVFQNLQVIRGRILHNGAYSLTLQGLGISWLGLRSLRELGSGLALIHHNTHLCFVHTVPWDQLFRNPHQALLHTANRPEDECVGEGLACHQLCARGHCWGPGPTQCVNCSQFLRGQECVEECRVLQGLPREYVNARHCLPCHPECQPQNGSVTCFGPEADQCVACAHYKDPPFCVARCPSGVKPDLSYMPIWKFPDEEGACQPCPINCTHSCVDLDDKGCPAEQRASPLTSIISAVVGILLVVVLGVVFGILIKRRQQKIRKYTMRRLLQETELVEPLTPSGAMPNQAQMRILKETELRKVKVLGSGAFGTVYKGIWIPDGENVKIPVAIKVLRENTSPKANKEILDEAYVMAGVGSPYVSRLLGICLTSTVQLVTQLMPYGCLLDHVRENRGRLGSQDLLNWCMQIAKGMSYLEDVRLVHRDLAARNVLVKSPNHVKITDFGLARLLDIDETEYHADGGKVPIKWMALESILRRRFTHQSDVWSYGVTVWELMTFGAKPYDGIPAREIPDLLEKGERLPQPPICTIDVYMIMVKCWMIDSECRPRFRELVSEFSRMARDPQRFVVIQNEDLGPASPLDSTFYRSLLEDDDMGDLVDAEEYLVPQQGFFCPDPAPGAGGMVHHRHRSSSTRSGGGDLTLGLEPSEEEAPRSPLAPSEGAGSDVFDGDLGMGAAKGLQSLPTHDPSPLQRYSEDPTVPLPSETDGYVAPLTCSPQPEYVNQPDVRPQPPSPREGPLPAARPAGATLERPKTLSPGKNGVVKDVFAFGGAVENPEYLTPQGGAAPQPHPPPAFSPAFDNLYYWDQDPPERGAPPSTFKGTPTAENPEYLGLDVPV
Method in brief: as §1

HIPK1 (Myak) = target: T6, HIPK1 (Myak) (Homo sapiens, UniProt Q86Z02); details: estimated, abridged dose response curve, read-out: Kinase inhibitory activity EC50
T6 construct: purchased Invitrogen (SelectScreen platform)
Method in brief: as §1

MARK1 (MARK) = target: T7, MARK1 (MARK) (Homo sapiens, UniProt Q9P0L2); details: estimated, abridged dose response curve, read-out: Kinase inhibitory activity EC50
T7 construct: purchased Invitrogen, Inc. (SelectScreen platform)
Method in brief: as §1

RPS6KA2 (RSK3) = target: T8, RPS6KA2 (RSK3) (Homo sapiens, UniProt Q15349); details: estimated, abridged dose response curve, read-out: Kinase inhibitory activity EC50
T8 construct: purchased Invitrogen, Inc. (SelectScreen platform)
Method in brief: as §1

JAK2 = target: T9, JAK2 (Homo sapiens, UniProt O60674); details: estimated, abridged dose response curve, read-out: Kinase inhibitory activity EC50
T9 construct: purchased Invitrogen (SelectScreen platform)
Method in brief: as §1

NEK1 = target: T10, NEK1 (Homo sapiens, UniProt Q96PY6); details: estimated, abridged dose response curve, read-out: Kinase inhibitory activity EC50
T10 construct: purchased Invitrogen, Inc. (SelectScreen service)
Method in brief: as §1

NTRK2 (TRKB) = target: T11, NTRK2 (TRKB) (Homo sapiens, UniProt Q16620)
T11 construct: purchased Invitrogen (SelectScreen)
T11 sequence (Q16620 32-822): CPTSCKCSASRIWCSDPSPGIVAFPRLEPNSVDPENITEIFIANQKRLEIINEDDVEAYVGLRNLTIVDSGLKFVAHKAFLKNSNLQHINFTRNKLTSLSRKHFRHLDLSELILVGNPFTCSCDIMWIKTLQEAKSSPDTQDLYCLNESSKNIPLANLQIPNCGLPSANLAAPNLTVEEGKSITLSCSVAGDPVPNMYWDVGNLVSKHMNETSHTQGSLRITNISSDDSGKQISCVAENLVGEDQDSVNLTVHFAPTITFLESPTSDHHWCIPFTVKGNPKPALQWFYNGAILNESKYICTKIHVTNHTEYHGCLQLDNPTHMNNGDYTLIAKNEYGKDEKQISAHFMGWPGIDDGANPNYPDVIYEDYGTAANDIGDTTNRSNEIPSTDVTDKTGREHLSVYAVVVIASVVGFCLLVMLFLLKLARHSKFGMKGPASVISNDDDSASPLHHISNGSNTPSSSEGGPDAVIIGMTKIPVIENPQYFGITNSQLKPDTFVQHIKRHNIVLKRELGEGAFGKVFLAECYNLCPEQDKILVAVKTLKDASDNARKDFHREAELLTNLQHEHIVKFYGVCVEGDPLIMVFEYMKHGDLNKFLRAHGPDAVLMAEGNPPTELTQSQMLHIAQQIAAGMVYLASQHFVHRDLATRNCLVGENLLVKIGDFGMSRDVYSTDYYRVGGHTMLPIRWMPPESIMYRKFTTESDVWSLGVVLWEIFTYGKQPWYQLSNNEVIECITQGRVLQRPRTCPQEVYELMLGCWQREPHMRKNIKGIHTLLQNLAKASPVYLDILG
Method in brief: as §1

PRKCQ (PKC theta) = target: T12, PRKCQ (PKC theta) (Homo sapiens, UniProt Q04759); details: estimated, abridged dose response curve, read-out: Kinase inhibitory activity EC50
T12 construct: purchased Invitrogen, Inc. (SelectScreen platform)
Method in brief: as §1

SGK2 = target: T13, SGK2 (Homo sapiens, UniProt Q9HBY8); details: estimated, abridged dose response curve, read-out: Kinase inhibitory activity EC50
T13 construct: purchased Invitrogen, Inc. (SelectScreen platform)
Method in brief: as §1

MAPK8 (JNK1) = target: T14, MAPK8 (JNK1) (Homo sapiens, UniProt P45983); details: estimated, abridged dose response curve, read-out: Kinase inhibitory activity EC50
T14 construct: purchased Invitrogen, Inc. (SelectScreen service)
T14 sequence (P45983 whole entry): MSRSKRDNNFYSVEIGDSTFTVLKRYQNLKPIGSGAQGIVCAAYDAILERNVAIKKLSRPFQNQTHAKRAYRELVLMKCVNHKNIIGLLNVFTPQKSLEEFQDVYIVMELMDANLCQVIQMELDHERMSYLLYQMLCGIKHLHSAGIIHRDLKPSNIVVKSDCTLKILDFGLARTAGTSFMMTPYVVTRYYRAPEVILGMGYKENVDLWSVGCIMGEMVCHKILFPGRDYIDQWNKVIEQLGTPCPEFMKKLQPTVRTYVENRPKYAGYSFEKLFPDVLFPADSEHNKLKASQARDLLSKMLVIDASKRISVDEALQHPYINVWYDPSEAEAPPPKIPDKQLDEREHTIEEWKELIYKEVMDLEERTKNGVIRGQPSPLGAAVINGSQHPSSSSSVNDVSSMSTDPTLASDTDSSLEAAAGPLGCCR
Method in brief: as §1

EPHA2 = target: T15, EPHA2 (Homo sapiens, UniProt P29317); details: estimated, abridged dose response curve, read-out: Kinase inhibitory activity EC50
T15 construct: purchased Invitrogen (SelectScreen service)
Method in brief: as §1

PRKCB1 (PKC beta I) = target: T16, PRKCB1 (PKC beta I) (Homo sapiens, UniProt P05771); details: estimated, abridged dose response curve, read-out: Kinase inhibitory activity EC50
T16 construct: purchased Invitrogen (SelectScreen platform)
T16 sequence (P05771 whole entry): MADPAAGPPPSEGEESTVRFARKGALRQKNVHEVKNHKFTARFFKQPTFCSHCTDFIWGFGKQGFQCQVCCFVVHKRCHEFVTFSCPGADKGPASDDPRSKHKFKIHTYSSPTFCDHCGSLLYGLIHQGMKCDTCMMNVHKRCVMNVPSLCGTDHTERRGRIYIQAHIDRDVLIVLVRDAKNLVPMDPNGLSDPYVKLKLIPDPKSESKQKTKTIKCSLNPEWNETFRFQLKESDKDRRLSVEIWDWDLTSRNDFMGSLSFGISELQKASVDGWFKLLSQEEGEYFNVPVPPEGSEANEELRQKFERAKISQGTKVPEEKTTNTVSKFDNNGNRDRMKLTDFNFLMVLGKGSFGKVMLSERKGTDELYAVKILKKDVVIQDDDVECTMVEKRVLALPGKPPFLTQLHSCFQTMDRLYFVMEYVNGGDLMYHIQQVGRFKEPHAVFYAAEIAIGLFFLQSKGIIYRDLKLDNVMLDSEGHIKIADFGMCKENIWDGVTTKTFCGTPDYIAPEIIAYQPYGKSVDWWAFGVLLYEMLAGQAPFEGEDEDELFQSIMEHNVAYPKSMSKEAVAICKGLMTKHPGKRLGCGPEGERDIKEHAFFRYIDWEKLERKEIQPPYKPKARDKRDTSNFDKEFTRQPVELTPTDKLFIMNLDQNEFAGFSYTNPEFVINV
Method in brief: as §1

PAK6 = target: T17, PAK6 (Homo sapiens, UniProt Q9NQU5); details: estimated, abridged dose response curve, read-out: Kinase inhibitory activity EC50
T17 construct: purchased Invitrogen (SelectScreen platform)
Method in brief: as §1

PRKACA (PKA, PKACA) = target: T18, PRKACA (PKA, PKACA) (Homo sapiens, UniProt P17612); details: estimated, abridged dose response curve, read-out: Kinase inhibitory activity EC50
T18 construct: purchased Invitrogen (SelectScreen platform)
Method in brief: as §1

MYLK2 (skMLCK) = target: T19, MYLK2 (skMLCK) (Homo sapiens, UniProt Q9H1R3); details: estimated, abridged dose response curve; for EC50: read-out: Kinase inhibitory activity EC50
T19 construct: purchased Invitrogen, Inc. (SelectScreen platform)
Method in brief: as §1

FGFR3 = target: T20, FGFR3 (Homo sapiens, UniProt P22607); details: estimated, abridged dose response curve, read-out: Kinase inhibitory activity EC50
T20 construct: purchased Invitrogen (SelectScreen platform)
Method in brief: as §1

KIT = target: T21, KIT (Homo sapiens, UniProt P10721); details: estimated, abridged dose response curve, read-out: Kinase inhibitory activity EC50
T21 construct: purchased Invitrogen (SelectScreen platform)
T21 sequence (P10721 26-976): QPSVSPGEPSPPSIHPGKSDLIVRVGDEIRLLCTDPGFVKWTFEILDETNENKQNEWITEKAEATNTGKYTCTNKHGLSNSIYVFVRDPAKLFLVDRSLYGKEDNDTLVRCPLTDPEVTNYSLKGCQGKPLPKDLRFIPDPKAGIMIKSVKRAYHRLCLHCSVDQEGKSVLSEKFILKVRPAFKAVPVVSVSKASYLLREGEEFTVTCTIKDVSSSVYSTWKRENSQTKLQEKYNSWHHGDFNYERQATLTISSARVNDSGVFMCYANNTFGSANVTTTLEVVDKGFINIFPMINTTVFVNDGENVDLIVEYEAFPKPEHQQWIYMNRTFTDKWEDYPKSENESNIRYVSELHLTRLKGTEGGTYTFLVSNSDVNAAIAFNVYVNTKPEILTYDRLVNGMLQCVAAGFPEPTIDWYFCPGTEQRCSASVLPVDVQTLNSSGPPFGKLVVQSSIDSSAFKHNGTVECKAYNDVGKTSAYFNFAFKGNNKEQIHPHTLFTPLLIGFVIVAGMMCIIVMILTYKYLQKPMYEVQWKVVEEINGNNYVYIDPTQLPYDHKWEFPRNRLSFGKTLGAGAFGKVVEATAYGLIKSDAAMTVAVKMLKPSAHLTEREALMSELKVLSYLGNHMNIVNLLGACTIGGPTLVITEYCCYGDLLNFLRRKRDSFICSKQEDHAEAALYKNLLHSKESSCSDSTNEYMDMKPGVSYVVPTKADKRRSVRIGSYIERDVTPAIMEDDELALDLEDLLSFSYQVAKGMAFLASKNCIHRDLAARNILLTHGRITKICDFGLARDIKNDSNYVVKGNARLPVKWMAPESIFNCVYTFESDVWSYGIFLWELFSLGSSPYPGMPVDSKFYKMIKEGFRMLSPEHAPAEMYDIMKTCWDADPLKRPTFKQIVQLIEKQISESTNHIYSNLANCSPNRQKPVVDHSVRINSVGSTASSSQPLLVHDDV
Method in brief: as §1

PAK7 (KIAA1264, PAK5) = target: T22, PAK7 (KIAA1264, PAK5) (Homo sapiens, UniProt Q9P286); details: estimated, abridged dose response curve, read-out: Kinase inhibitory activity EC50
T22 construct: purchased Invitrogen (SelectScreen platform)
Method in brief: as §1

EEF2K = target: T23, EEF2K (Homo sapiens, UniProt O00418); details: estimated, abridged dose response curve, read-out: Kinase inhibitory activity EC50
T23 construct: purchased Invitrogen, Inc. (SelectScreen platform)
Method in brief: as §1

RAF1 (cRAF) Y340D Y341D = target: T24, RAF1 (cRAF) Y340D Y341D (Homo sapiens, UniProt P04049, Y340D/Y341D); details: estimated, abridged dose response curve, read-out: Kinase inhibitory activity EC50
T24 construct: purchased Invitrogen, Inc. (SelectScreen platform)
Method in brief: as §1

AURKA (Aurora A) = target: T25, AURKA (Aurora A) (Homo sapiens, UniProt O14965); details: estimated, abridged dose response curve, read-out: Kinase inhibitory activity EC50
T25 construct: purchased Invitrogen, Inc. (SelectScreen service)
T25 sequence (O14965 whole entry): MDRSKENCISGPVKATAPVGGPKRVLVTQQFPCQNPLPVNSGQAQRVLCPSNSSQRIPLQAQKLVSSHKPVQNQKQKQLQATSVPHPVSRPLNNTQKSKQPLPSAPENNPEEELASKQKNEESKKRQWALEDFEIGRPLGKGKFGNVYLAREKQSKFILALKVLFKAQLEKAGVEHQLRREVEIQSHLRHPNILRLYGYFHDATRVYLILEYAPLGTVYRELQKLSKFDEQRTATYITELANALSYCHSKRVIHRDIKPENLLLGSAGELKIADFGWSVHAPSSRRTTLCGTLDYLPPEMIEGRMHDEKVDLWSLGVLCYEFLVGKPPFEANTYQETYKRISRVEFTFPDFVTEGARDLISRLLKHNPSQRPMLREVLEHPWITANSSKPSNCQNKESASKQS
Method in brief: as §1

EPHB1 = target: T26, EPHB1 (Homo sapiens, UniProt P54762)
T26 construct: purchased Invitrogen (SelectScreen service)
Method in brief: as §1

Row | Compound | EC50 (PRKCI (PKC iota)) [µM] | EC50 (CAMK1D (CaMKI delta)) [µM] | EC50 (ABL1 E255K) [µM] | EC50 (MAPK11 (p38 beta)) [µM] | EC50 (ERBB2 (HER2)) [µM] | EC50 (HIPK1 (Myak)) [µM] | EC50 (MARK1 (MARK)) [µM] | EC50 (RPS6KA2 (RSK3)) [µM] | EC50 (JAK2) [µM] | EC50 (NEK1) [µM] | EC50 (PRKCQ (PKC theta)) [µM] | EC50 (SGK2) [µM] | EC50 (MAPK8 (JNK1)) [µM] | EC50 (EPHA2) [µM] | EC50 (PRKCB1 (PKC beta I)) [µM] | EC50 (PAK6) [µM] | EC50 (PRKACA (PKA, PKACA)) [µM] | EC50 (MYLK2 (skMLCK)) [µM] | EC50 (FGFR3) [µM] | EC50 (KIT) [µM] | also measured
1 | CN(C)CCCNc1ccc2ncn3c4ccc5[nH]ncc5c4c(=O)c1c23 [Compound (IV)] | > 5 | 2.78 | 3.72 | > 5 | > 5 | 1.21 | > 5 | 0.84 | > 5 | > 5 | > 5 | > 5 | > 5 | > 5 | > 5 | > 5 | > 5 | 0.015 | 3.21 | 1.1 | EC50 (NTRK2 (TRKB); NTRK2 (TRKB), estimated, abridged dose response curve, read-out: Kinase inhibitory activity EC50): 0.78 µM; Kinase inhibitory activity EC50 (MYLK2 (skMLCK)): low nM; EC50 (PAK7 (KIAA1264, PAK5)): > 5 µM; EC50 (EEF2K): > 5 µM; EC50 (RAF1 (cRAF) Y340D Y341D): > 5 µM; EC50 (AURKA (Aurora A)): > 5 µM; EC50 (EPHB1; EPHB1, estimated, abridged dose response curve, read-out: Kinase inhibitory activity EC50): > 5 µM
2 | CCN(CC)CCNc1ccc2ncn3c4ccc(O)cc4c(=O)c1c23 [Symadex, 5-(2-(diethylamino)ethylamino)-8-hydroxy-6H-imidazo[4,5,1-de]acridin-6-one, reference compound] | > 5 | 4 | > 5 | > 5 | > 5 | > 5 | 3.19 | 0.46 | > 5 | 3.38 | > 5 | > 5 | > 5 | > 5 | > 5 | > 5 | > 5 | 0.041 | > 5 | 2.25 | EC50 (NTRK2 (TRKB)): > 5 µM; EC50 (PAK7 (KIAA1264, PAK5)): > 5 µM; EC50 (EEF2K): > 5 µM; EC50 (RAF1 (cRAF) Y340D Y341D): > 5 µM; EC50 (AURKA (Aurora A)): > 5 µM; EC50 (EPHB1): > 5 µM
